47 compounds from the supplement of paper PMC10290057 can be followed below.

Test [1] has as its system HCT116. The test is described as follows: AC50 cell viability (CellTiter-Glo); higher = less potent. The following applies: 48 h. A general note: In ATP-based viability assays light output follows the ATP content of the culture.
Test [2] concerns HCT116. The test is described as follows: efficacy (fitted maximal change in viability relative to DMSO control); higher = less cytotoxic (negative = loss of viability). The conditions noted are these: 48 h.

Where a name gives a salt, the structure may show the parent alone.
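Wherever AC50 cell viability (CellTiter-Glo) is given: HCT116 colorectal carcinoma cells screened at five concentrations per compound, luminescent viability scaled between DMSO wells and empty wells on each plate, curves fitted per compound.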
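Wherever efficacy (fitted maximal change in viability relative to DMSO control) is given: Luminescence-based viability readout, five doses per compound, normalized against on-plate DMSO and empty-well controls, followed by dose-response curve fitting for every drug.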

The compound `CC(C)[C@H](CO)Nc1nc(Nc2cccc(Cl)c2)c2ncn(C(C)C)c2n1` [Purvalanol A] came in with an AC50 cell viability in test [1] of 13.2 µM. In addition, in test [2], the efficacy is -110%.

On to `NCCOc1cc(C(=O)Nc2cc(OCCN)c3ccccc3n2)nc(C(=O)Nc2cc(OCCN)c3ccccc3n2)c1` [Pyridostatin], for which the AC50 cell viability in test [1] stood at 18.6 µM. Also, the efficacy in test [2] was -78.9%.

For the compound `CCc1nc(N)nc(N)c1-c1ccc(Cl)cc1` [Pyrimethamine], the AC50 cell viability in test [1] came to 3.32 µM. Further, in test [2], the efficacy was -88.5%.

Compound `O=C(CCCCCCC(=O)Nc1cccnc1)NO` [Pyroxamide] returned an AC50 cell viability in test [1] of 2.95 µM. For the same compound, the efficacy in test [2] is -87.9%.

The compound `OC[C@H](Cc1ccccc1)Nc1nc(Oc2ccc3c(c2)CCC3)nc2c1ncn2Cc1ccc(-c2ccccc2)cc1` [QS11] had an AC50 cell viability in test [1] of 9.34 µM. For the same compound, in test [2], the efficacy is -49.7%.

`CCN(CC)CCCC(C)Nc1c2ccc(Cl)cc2nc2ccc(OC)cc12.Cl.Cl.O.O` (centres undefined) [Quinacrine]: the AC50 cell viability in test [1] was determined as 8.33 µM. Also, the efficacy in test [2] was -90.5%.

Take `Cn1cc(CNCC2CCN(c3ncc(C(=O)NO)cn3)CC2)c2ccccc21` [Quisinostat]: in test [1], the AC50 cell viability is 0.0742 µM. The efficacy in test [2] was -81.9%.

Take `CC(C)(C)c1cc(NC(=O)Nc2ccc(-c3cn4c(n3)sc3cc(OCCN5CCOCC5)ccc34)cc2)no1` [Quizartinib]: the AC50 cell viability in test [1] came out at 13.2 µM. The efficacy in test [2] was -74.1%.

`COc1cc(Nc2ncc(F)c(Nc3ccc4c(n3)NC(=O)C(C)(C)O4)n2)cc(OC)c1OC` [R-406] displayed an AC50 cell viability in test [1] of 3.72 µM. The efficacy in test [2] was -30.6%.

As to `COc1ccc(F)c(F)c1C(=O)c1cnc(NC2CCN([S+](C)(=O)[O-])CC2)nc1N` [R-547], the AC50 cell viability in test [1] is 0.417 µM. Also, the efficacy in test [2] is -67.8%.

Take `COC1=C(F)C=C\2C(=C1)\N=C/3NNC(=C3\N=C2C4=CC=CC=C4Cl)/C` [R-1530]: the AC50 cell viability in test [1] worked out at 14.8 µM. In addition, the efficacy in test [2] is -73.2%.

In test [1], `FC(F)(F)c1ccc(Nc2nc3cc(Oc4ccnc(-c5ncc(C(F)(F)F)[nH]5)c4)ccc3[nH]2)cc1` [RAF-265 derivative] gave an AC50 cell viability of 14.8 µM. The efficacy in test [2] is -84.8%.

In test [1], `Cc1ncc(NC(=O)c2cccc(C(F)(F)F)c2)cc1-c1cnc(OC2CCOCC2)c(N2CCOCC2)c1` [RAF-709] had an AC50 cell viability of 0.525 µM. For the same compound, the efficacy in test [2] was -84.5%.

For the compound `Cc1cc(Nc2cc(NC(=O)c3c(Cl)cccc3Cl)ccn2)nc(N)n1` [RO495], the AC50 cell viability in test [1] was determined as 1.18 µM. Moreover, the efficacy in test [2] is -74.4%.

In turn, `COc1cc(C(N)=O)ccc1NC(=O)[C@@H]1N[C@@H](CC(C)(C)C)[C@@]2(C(=O)Nc3cc(Cl)ccc32)[C@H]1c1cccc(Cl)c1F` [RO8994] showed an AC50 cell viability in test [1] of 0.934 µM. In test [2], the efficacy is -110%.

As for `COC(=O)c1ccc([C@H]2c3[nH]c4ccccc4c3C[C@H](C(=O)OC)N2C(=O)CCl)cc1` [RSL3], the AC50 cell viability in test [1] came to 11.8 µM. Further, in test [2], the efficacy is -110%.

Consider `COC1=CC(=C2C(=O)N\C(=N/C2=C1)C3=CC(=C(OCCO)C(=C3)C)C)OC` [RVX-208], for which the AC50 cell viability in test [1] amounted to 18.6 µM. Also, in test [2], the efficacy is -41.5%.

Take `COc1cc(OC)cc(N2CCN(C(=O)Nc3nc4cc(F)ccc4nc3OC)CC2)c1` [RX-5902 (SUPINOXIN)]: the AC50 cell viability in test [1] turned out to be 2.63 µM. In addition, in test [2], the efficacy is -60%.

In turn, `COCCCOc1ccnc(CS(=O)c2nc3ccccc3[n-]2)c1C.[Na+]` (centres undefined) [Rabeprazole] showed an AC50 cell viability in test [1] of 16.6 µM. Moreover, in test [2], the efficacy is -43.4%.

The compound `Cc1cnc(NC(=O)Nc2cc(Br)c(C)cc2OC[C@@H]2CNCCO2)cn1` [Rabusertib] displayed an AC50 cell viability in test [1] of 16.6 µM. Also, in test [2], the efficacy is -103%.

The compound `CC(C)(c1ccc(OCC(O)CO)cc1)c1ccc(OCC(O)CCl)cc1` (stereo not drawn) [Ralaniten (EPI-001)] registered an AC50 cell viability in test [1] of 18.6 µM. Moreover, the efficacy in test [2] is -37%.

The compound `O=C(c1ccc(OCCN2CCCCC2)cc1)c1c(-c2ccc(O)cc2)sc2cc(O)ccc12` [Raloxifene hydrochloride] came in with an AC50 cell viability in test [1] of 20.9 µM. For the same compound, the efficacy in test [2] was -94.4%.

On to `C[N]1N=CC=C1NC2=NC=CC(=N2)C\3=C\C(=O)N(\C=C3)[C@H](CO)C4=CC(=C(Cl)C=C4)F` [Ravoxertinib], for which, in test [1], the AC50 cell viability was determined as 14.8 µM. In addition, the efficacy in test [2] was -116%.

In test [1], `CO[C@@H]1[C@@H](O)[C@H](O)[C@@H](n2c3c(Cl)cccc3c3c4c(c5c6cccc(Cl)c6[nH]c5c32)C(=O)NC4=O)O[C@H]1CO` [Rebeccamycin] yielded an AC50 cell viability of 0.934 µM. Besides, the efficacy in test [2] was -88.9%.

On to `COc1cc(F)c(F)c(Nc2ccc(I)cc2F)c1N[S+](=O)([O-])C1(C[C@H](O)CO)CC1` [Refametinib], for which the AC50 cell viability in test [1] worked out at 2.63 µM. In addition, the efficacy in test [2] is -84.3%.

`CNC(=O)c1cc(Oc2ccc(NC(=O)Nc3ccc(Cl)c(C(F)(F)F)c3)c(F)c2)ccn1` [Regorafenib] gave an AC50 cell viability in test [1] of 5.25 µM. Moreover, in test [2], the efficacy was -85.3%.

Take `CONC(=O)Nc1ccc(-c2sc3c(c2CN(C)C)c(=O)n(-c2ccc(OC)nn2)c(=O)n3Cc2c(F)cccc2F)cc1` [Relugolix]: in test [1], the AC50 cell viability stood at 23.5 µM. In addition, the efficacy in test [2] was -67.3%.

As for `COC(=O)C1C2CC3c4[nH]c5cc(OC)ccc5c4CCN3CC2CC(OC(=O)c2cc(OC)c(OC)c(OC)c2)C1OC` (centres undefined) [Reserpine], in test [1], the AC50 cell viability turned out to be 20.9 µM. In test [2], the efficacy was -68.3%.

In test [1], `CN(C)Cc1ccc([S+](=O)([O-])n2ccc(/C=C/C(=O)NO)c2)cc1` [Resminostat] gave an AC50 cell viability of 2.35 µM. The efficacy in test [2] is -103%.

Regarding `Oc1ccc(/C=C/c2cc(O)cc(O)c2)cc1` [Resveratrol], the AC50 cell viability in test [1] turned out to be 20.9 µM. Further, the efficacy in test [2] is -49.1%.

In test [1], `C=CCNc1c(O)cc2c(O)c1C[C@@H](C)C[C@H](OC)[C@H](O)[C@@H](C)/C=C(/C)[C@H](OC(N)=O)[C@@H](OC)/C=C\C=C(\C)C(=O)N2` [Retaspimycin Hydrochloride] returned an AC50 cell viability of 0.372 µM. Moreover, in test [2], the efficacy was -66.4%.

The compound `c1nc2c(NC3CCCCC3)nc(Nc3ccc(N4CCOCC4)cc3)nc2[nH]1` [Reversine] had an AC50 cell viability in test [1] of 6.61 µM. The efficacy in test [2] was -114%.

With `CO[C@H]1C[C@@H]2CC[C@@H](C)[C@@](O)(O2)C(=O)C(=O)N2CCCC[C@H]2C(=O)O[C@H]([C@H](C)C[C@@H]2CC[C@@H](OP(C)(C)=O)[C@H](OC)C2)CC(=O)[C@H](C)/C=C(\C)[C@@H](O)[C@@H](OC)C(=O)[C@H](C)C[C@H](C)/C=C/C=C/C=C/1C` [Ridaforolimus], the AC50 cell viability in test [1] is 20.9 µM. For the same compound, the efficacy in test [2] is -48.8%.

Consider `CO[C@H]1/C=C/O[C@@]2(C)Oc3c(C)c(O)c4c(c3C2=O)C2=NC3(CCN(CC(C)C)CC3)NC2=C(NC(=O)/C(C)=C/C=C/[C@H](C)[C@H](O)[C@@H](C)[C@@H](O)[C@@H](C)[C@H](OC(C)=O)[C@@H]1C)C4=O` [Rifabutin], for which the AC50 cell viability in test [1] stood at 23.5 µM. The efficacy in test [2] is -60%.

In turn, `Nc1nc2ccc(OC(F)(F)F)cc2s1` [Riluzole] displayed an AC50 cell viability in test [1] of 10.5 µM. Besides, in test [2], the efficacy is -59.1%.

The compound `Cc1c(C(=O)NN2CCCCC2)nn(-c2ccc(Cl)cc2Cl)c1-c1ccc(Cl)cc1` [Rimonabant] showed an AC50 cell viability in test [1] of 23.5 µM. Moreover, in test [2], the efficacy was -93.4%.

As to `CN1CCC(C1CO)C2=C(O)C=C(O)C3=C2O\C(=C/C3=O)C4=CC=CC=C4Cl` (centres undefined) [Riviciclib (P276-00)], the AC50 cell viability in test [1] came to 0.372 µM. In addition, in test [2], the efficacy was -73.4%.

In test [1], `C[S+](=O)([O-])c1ccc([C@@H](CC2CCCC2)C(=O)Nc2nccs2)cc1` [Ro-28-1675] registered an AC50 cell viability of 23.5 µM. Also, the efficacy in test [2] was -67.1%.

On to `C=CC(=O)Nc1cccc(Nc2nc(Nc3ccc(N4CCN(C(C)=O)CC4)cc3OC)ncc2C(F)(F)F)c1` [Rociletinib], for which, in test [1], the AC50 cell viability came out at 8.33 µM. The efficacy in test [2] is -112%.

Regarding `C[C@@H](OC[C@@]1(c2ccccc2)CC[C@]2(CCC(=O)N2)CN1)c1cc(C(F)(F)F)cc(C(F)(F)F)c1` [Rolapitant], the AC50 cell viability in test [1] is 13.2 µM. For the same compound, the efficacy in test [2] was -111%.

Regarding `C/C=C1\NC(=O)[C@H]2CSSCC/C=C\[C@H](CC(=O)N[C@H](C(C)C)C(=O)N2)OC(=O)[C@H](C(C)C)NC1=O` [Romidepsin], in test [1], the AC50 cell viability was determined as 0.00742 µM. The efficacy in test [2] was -94.8%.

Turning to `C[C@@H](O)[C@@H](C)Oc1nc(Nc2ccc([S+](=N)([O-])C3CC3)cc2)ncc1C(F)(F)F` (some centres undefined) [Roniciclib], the AC50 cell viability in test [1] came out at 18.6 µM. For the same compound, in test [2], the efficacy is -94%.

Compound `[O-]C(=O)C1=C(C(=C(Cl)C(=C1Cl)Cl)Cl)C/2=C/3\C=C(I)/C(=O)/C(=C3OC4=C2C=C(I)C(=C4I)[O-])I` [Rose Bengal disodium] gave an AC50 cell viability in test [1] of 16.6 µM. Further, in test [2], the efficacy is -47%.

The compound `C=C(C)[C@H]1Cc2c(ccc3c2O[C@@H]2COc4cc(OC)c(OC)cc4[C@@H]2C3=O)O1` [Rotenone] yielded an AC50 cell viability in test [1] of 0.525 µM. Moreover, the efficacy in test [2] is -64.9%.

In test [1], `CN(C)C[C@@H]1CC[N]2C=C(C3=C2C=CC=C3)C/4=C(/C(=O)NC4=O)C5=C[N](CCO1)C6=C5C=CC=C6` [Ruboxistaurin mesylate] showed an AC50 cell viability of 8.33 µM. In test [2], the efficacy was -102%.

`CNCc1ccc(-c2[nH]c3cc(F)cc4c3c2CCNC4=O)cc1` [Rucaparib]: in test [1], the AC50 cell viability stood at 18.6 µM. Further, the efficacy in test [2] is -101%.

For the compound `N#CC[C@H](C1CCCC1)n1cc(-c2ncnc3[nH]ccc23)cn1` [Ruxolitinib], the AC50 cell viability in test [1] came out at 11.8 µM. Further, in test [2], the efficacy is -67.4%.
